For orientation: inhibition means the relative decrease from the control value, in per cent.

Each structure is given as a SMILES string.

The target in one test is T1, human PDE4B1 (Homo sapiens, UniProt Q07343).
T1 construct: host or cells: Sf9 cells
T1 sequence (Q07343 whole entry): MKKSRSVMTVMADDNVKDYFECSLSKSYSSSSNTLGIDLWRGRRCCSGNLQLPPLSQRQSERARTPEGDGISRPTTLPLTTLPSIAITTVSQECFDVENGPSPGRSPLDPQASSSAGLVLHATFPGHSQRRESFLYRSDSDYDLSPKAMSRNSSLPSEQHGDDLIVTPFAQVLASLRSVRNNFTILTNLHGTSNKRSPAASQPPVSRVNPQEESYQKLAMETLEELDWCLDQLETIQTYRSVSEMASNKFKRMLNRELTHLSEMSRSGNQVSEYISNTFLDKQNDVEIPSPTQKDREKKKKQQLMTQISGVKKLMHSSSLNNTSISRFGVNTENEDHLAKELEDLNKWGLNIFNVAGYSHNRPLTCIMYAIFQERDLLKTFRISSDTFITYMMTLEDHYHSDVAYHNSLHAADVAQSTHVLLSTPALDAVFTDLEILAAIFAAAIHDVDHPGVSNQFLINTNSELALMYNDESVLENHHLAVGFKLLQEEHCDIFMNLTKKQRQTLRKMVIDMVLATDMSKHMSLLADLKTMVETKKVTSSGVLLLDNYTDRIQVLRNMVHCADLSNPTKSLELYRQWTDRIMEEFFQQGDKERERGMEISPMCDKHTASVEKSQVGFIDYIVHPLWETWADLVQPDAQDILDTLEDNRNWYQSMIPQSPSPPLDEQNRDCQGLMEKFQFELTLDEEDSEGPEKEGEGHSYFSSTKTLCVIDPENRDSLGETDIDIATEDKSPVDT
Nature of the test: TR-FRET assay using the LANCE Ultra cAMP kit to determine the activity of hPDE4B1. In kind it is biochemical. Particulars: test concentration 1 μM, 1 µM. The text has this:
TR-FRET Assay Using the LANCE® Ultra cAMP Kit to Determine the Activity of hPDE4B1
The effects of the compounds on the activity of the human PDE4B1 was quantified by measuring the production of 5′AMP from cAMP using a human recombinant enzyme expressed in Sf9 cells and the LANCE® Ultra cAMP kit, a TR-FRET detection method from PerkinElmer. The human PDE4B1 enzyme was purchased from SignalChem Lifesciences (Catalog# P92-31BG, Lot# H296-2).
The test compound, reference compound or water (control) was mixed with the enzyme (0.96 U) in a reaction buffer containing 50 mM Tris-HCl, 50 mM MgCl2 and 5 mM DTT (pH 8.5). Thereafter, the reaction was initiated by addition of 500 nM cAMP (substrate) and the mixture was incubated for 30 minutes at room temperature. For control basal measurements, the enzyme was omitted from the reaction mixture. After 30 minutes, the reaction was stopped and diluted by a factor of 100 with the reaction buffer supplemented with 500 μM IBMX. The fluorescence donor (europium chelate-labeled cAMP) and the fluorescence acceptor (anti-cAMP antibody labeled with the ULight™ dye) were then added together with 500 μM IBMX to a 10 μl aliquot. After 60 minutes, the fluorescence transfer corresponding to the amount of residual cAMP was measured at λex=337 nm, λem=620 nm and λem=665 nm using a microplate reader (PHERAstar, BMG). The enzyme activity was determined by dividing the signal measured at 665 nm by that measured at 620 nm (ratio) multiplied by 10000. The results were expressed as percent inhibition of the control enzyme activity. IC50 values (IC50=concentration causing a half-maximal inhibition of control specific activity) were derived from dose response measurements with ten different concentrations (n=3; N=1-3).
On the technique in general: TR-FRET usually uses a lanthanide donor and a delayed reading to cut background.
`CC(O)c1ccnc(-c2cnc(-n3cc([S+](C)[O-])c4ccc(C(=O)N5CCOCC5)cc43)nc2)c1` (centres unmarked) [Example 300, (1-(5-(4-(1-Hydroxyethyl)pyridin-2-yl)pyrimidin-2-yl)-3-(methylsulfinyl)-1H-indol-6-yl)(morpholino)methanone]: the “Inhibition in % (inhibition of PDE4B)” value is given as 93%.

The test is the same for the next values; noted with them: test concentration 1 μM, read-out: Inhibition in % (inhibition of PDE4B).
For `CS(=N)(=O)c1cn(-c2ncc(-c3ccccc3F)cn2)c2cc(C(=O)N3CCOCC3)ccc12` (centres unmarked) [Example 287, (1-(5-(2-Fluorophenyl)pyrimidin-2-yl)-3-(S-methylsulfonimidoyl)-1H-indol-6-yl)(morpholino)methanone], the inhibition at 1 µM amounted to 93%.
Same read-out and setting: the figure for `Cc1ccnc(-c2cnc(-n3cc(S(C)(=N)=O)c4ccc(C(=O)N5CCOCC5)cc43)nc2)c1` (centres unmarked) [Example 288, (1-(5-(4-Methylpyridin-2-yl)pyrimidin-2-yl)-3-(S-methylsulfonimidoyl)-1H-indol-6-yl)(morpholino)methanone] is 92%; for `C[S+]([O-])c1cn(-c2ncc(-c3cc(C(C)(C)O)ccn3)cn2)c2cc(C(=O)N3CCOCC3)ccc12` (centres unmarked) [Example 289, (1-(5-(4-(2-Hydroxypropan-2-yl)pyridin-2-yl)pyrimidin-2-yl)-3-(methylsulfinyl)-1H-indol-6-yl)(morpholino)methanone] it is 93%.
The same measure, in the same setting: the figure for `CC(O)c1ccnc(-c2cnc(-n3cc([S+](C)[O-])c4ccc(C(=O)N5CCOCC5)cc43)nc2)c1` (centres unmarked) [Example 291, (1-(5-(4-(1-Hydroxyethyl)pyridin-2-yl)pyrimidin-2-yl)-3-(methylsulfinyl)-1H-indol-6-yl)(morpholino)methanone] is 90%; for `C[S+]([O-])c1cn(-c2ncc(-c3cc(C(C)(C)O)ccc3F)cn2)c2cc(C(=O)N3CCOCC3)ccc12` (centres unmarked) [Example 293, (1-(5-(2-Fluoro-5-(2-hydroxypropan-2-yl)phenyl)pyrimidin-2-yl)-3-(methylsulfinyl)-1H-indol-6-yl)(morpholino)methanone] it is 94%; for `C[S+]([O-])c1cn(-c2ncc(-c3cc(NCC4CC4)ccn3)cn2)c2cc(C(=O)N3CCOCC3)ccc12` (centres unmarked) [Example 296, (1-(5-(4-((Cyclopropylmethyl)amino)pyridin-2-yl)pyrimidin-2-yl)-3-(methylsulfinyl)-1H-indol-6-yl)(morpholino)methanone] it is 97%.
`C[S+]([O-])c1cn(-c2ncc(-c3cc(N4CCCC4)ccn3)cn2)c2cc(C(=O)N3CCOCC3)ccc12` (centres unmarked) [Example 297, (3-(Methylsulfinyl)-1-(5-(4-(pyrrolidin-1-yl)pyridin-2-yl)pyrimidin-2-yl)-1H-indol-6-yl)(morpholino)methanone]: the inhibition at 1 µM was found to be 93%.
As to `CCNc1ccnc(-c2cnc(-n3cc([S+](C)[O-])c4ccc(C(=O)N5CCOCC5)cc43)nc2)c1` (centres unmarked) [Example 298, (1-(5-(4-(Ethylamino)pyridin-2-yl)pyrimidin-2-yl)-3-(methylsulfinyl)-1H-indol-6-yl)(morpholino)methanone], the inhibition at 1 µM was 119%.
For `C[S+]([O-])c1cn(-c2ncc(-c3cc(Cl)ccn3)cn2)c2cc(C(=O)N3CCOCC3)ccc12` (centres unmarked) [Example 299, (1-(5-(4-Chloropyridin-2-yl)pyrimidin-2-yl)-3-(methylsulfinyl)-1H-indol-6-yl)(morpholino)methanone], the inhibition at 1 µM worked out at 94%.
Regarding `C[S+]([O-])c1cn(-c2ncc(-c3ccccc3F)cn2)c2cc(C(=O)N3CC=CCC3)ccc12` (centres unmarked) [Example 306, (5,6-Dihydropyridin-1(2H)-yl)(1-(5-(2-fluorophenyl)pyrimidin-2-yl)-3-(methylsulfinyl)-1H-indol-6-yl)methanone], the inhibition at 1 µM turned out to be 80%.
For `CN(CCCO)C(=O)c1ccc2c([S+](C)[O-])cn(-c3ncc(-c4ccccc4F)cn3)c2c1` (centres unmarked) [Example 307, 1-(5-(2-Fluorophenyl)pyrimidin-2-yl)-N-(3-hydroxypropyl)-N-methyl-3-(methylsulfinyl)-1H-indole-6-carboxamide], the inhibition at 1 µM was 82%.

The test is the same for the next values; noted with them: test concentration 10 μM (marked in cell), read-out: Inhibition in % (inhibition of PDE4B).
As to `CN(CC(N)=O)C(=O)c1ccc2c([S+](C)[O-])cn(-c3ncc(-c4cc(N)ccn4)cn3)c2c1` (centres unmarked) [Example 286, N-(2-Amino-2-oxoethyl)-1-(5-(4-aminopyridin-2-yl)pyrimidin-2-yl)-N-methyl-3-(methylsulfinyl)-1H-indole-6-carboxamide], the inhibition at 10 µM was 101%.
On the same count and under the same terms, the result for `C[S+]([O-])c1cn(-c2ncc(-c3cc(NCC4CC4)ccc3F)cn2)c2cc(C(=O)N3CCOCC3)ccc12` (centres unmarked) [Example 290, (1-(5-(5-((Cyclopropylmethyl)amino)-2-fluorophenyl)pyrimidin-2-yl)-3-(methylsulfinyl)-1H-indol-6-yl)(morpholino)methanone] reads 97%; that for `CCNc1ccc(F)c(-c2cnc(-n3cc([S+](C)[O-])c4ccc(C(=O)N5CCOCC5)cc43)nc2)c1` (centres unmarked) [Example 292, (1-(5-(5-(Ethylamino)-2-fluorophenyl)pyrimidin-2-yl)-3-(methylsulfinyl)-1H-indol-6-yl)(morpholino)methanone], 91%; that for `C[S+]([O-])c1cn(-c2ncc(-c3cc(C4(O)CC4)ccc3F)cn2)c2cc(C(=O)N3CCOCC3)ccc12` (centres unmarked) [Example 294, (1-(5-(2-Fluoro-5-(1-hydroxycyclopropyl)phenyl)pyrimidin-2-yl)-3-(methylsulfinyl)-1H-indol-6-yl)(morpholino)methanone], 98%.
For the compound `C[S+]([O-])c1cn(-c2ncc(-c3cc(C4(O)CC4)ccn3)cn2)c2cc(C(=O)N3CCOCC3)ccc12` (centres unmarked) [Example 295, (1-(5-(4-(1-Hydroxycyclopropyl)pyridin-2-yl)pyrimidin-2-yl)-3-(methylsulfinyl)-1H-indol-6-yl)(morpholino)methanone], the inhibition at 10 µM was found to be 98%.
Same read-out and setting: the figure for `C[S+]([O-])c1cn(-c2ncc(-c3cc(N4CCCC4)ccn3)cn2)c2cc(C(=O)N3CCOCC3)ccc12` (centres unmarked) [Example 301, (3-(Methylsulfinyl)-1-(5-(4-(pyrrolidin-1-yl)pyridin-2-yl)pyrimidin-2-yl)-1H-indol-6-yl)(morpholino)methanone] is 99%; for `C[S+]([O-])c1cn(-c2ncc(-c3ccccc3F)cn2)c2cc(C(=O)N3CC[C@@H](CO)C3)ccc12` (stereo partly drawn) [Example 302, (1-(5-(2-Fluorophenyl)pyrimidin-2-yl)-3-(methylsulfinyl)-1H-indol-6-yl)((R)-3-(hydroxymethyl)pyrrolidin-1-yl)methanone] it is 103%.
For `C[S+]([O-])c1cn(-c2ncc(-c3ccccc3F)cn2)c2cc(C(=O)N3CC[C@H](CO)C3)ccc12` (stereo partly drawn) [Example 303, (1-(5-(2-Fluorophenyl)pyrimidin-2-yl)-3-(methylsulfinyl)-1H-indol-6-yl)((S)-3-(hydroxymethyl)pyrrolidin-1-yl)methanone], the inhibition at 10 µM came to 99%.
As to `CNC(=O)CN(C)C(=O)c1ccc2c([S+](C)[O-])cn(-c3ncc(-c4cc(C)ccc4F)cn3)c2c1` (centres unmarked) [Example 304, 1-(5-(2-Fluoro-5-methylphenyl)pyrimidin-2-yl)-N-methyl-N-(2-(methylamino)-2-oxoethyl)-3-(methylsulfinyl)-1H-indole-6-carboxamide], the inhibition at 10 µM was determined as 115%.
With `CNC(=O)CN(C)C(=O)c1ccc2c(S(C)(=O)=O)cn(-c3ncc(-c4cc(C)ccc4F)cn3)c2c1` [Example 305, 1-(5-(2-Fluoro-5-methylphenyl)pyrimidin-2-yl)-N-methyl-N-(2-(methylamino)-2-oxoethyl)-3-(methylsulfonyl)-1H-indole-6-carboxamide], the inhibition at 10 µM stood at 85%.
Regarding `C[S+]([O-])c1cn(-c2ncc(-c3ccccc3F)cn2)c2cc(C(=O)N3C[C@@H]4C[C@H]3CO4)ccc12` (stereo partly drawn) [Example 308, (1S,4S)-2-Oxa-5-azabicyclo[2.2.1]heptan-5-yl(1-(5-(2-fluorophenyl)pyrimidin-2-yl)-3-(methylsulfinyl)-1H-indol-6-yl)methanone], the inhibition at 10 µM worked out at 101%.
The same measure, in the same setting: the result for `CS(=O)(=O)c1cn(-c2ncc(-c3ccccc3F)cn2)c2cc(C(=O)N3C[C@@H]4C[C@H]3CO4)ccc12` [Example 309, (1S,4S)-2-Oxa-5-azabicyclo[2.2.1]heptan-5-yl(1-(5-(2-fluorophenyl)pyrimidin-2-yl)-3-(methylsulfonyl)-1H-indol-6-yl)methanone] reads 97%; that for `COc1ccc(F)c(-c2cnc(-n3cc(S(C)(=O)=O)c4ccc(C(=O)N(C)CC(N)=O)cc43)nc2)c1` [Example 310, N-(2-Amino-2-oxoethyl)-1-(5-(2-fluoro-5-methoxyphenyl)pyrimidin-2-yl)-N-methyl-3-(methylsulfonyl)-1H-indole-6-carboxamide], 91%; that for `CCc1ccc(F)c(-c2cnc(-n3cc(S(C)(=O)=O)c4ccc(C(=O)N(C)CC(N)=O)cc43)nc2)c1` [Example 311, N-(2-Amino-2-oxoethyl)-1-(5-(5-ethyl-2-fluorophenyl)pyrimidin-2-yl)-N-methyl-3-(methylsulfonyl)-1H-indole-6-carboxamide], 98%.

For the origin of these results see US9315490B2, “2,5-substituted pyrimidines” (Grünenthal GmbH, priority 2014, dated 2016).
